ChEMBL document CHEMBL3425501, “Synthesis and Evaluation of Quinazolines as Inhibitors of the Bacterial Cell Division Protein FtsZ” (ACS Med Chem Lett, 2015)
Active and inactive are the calls of the source. The rule behind the calls is not given here.

target: T1, Cell division protein FtsZ (Escherichia coli K-12, UniProt P0A9A6); assay: Inhibition of Escherichia coli FtsZ GTPase activity after 5 mins by enzyme-coupled inhibition assay
T1 sequence (P0A9A6 whole entry): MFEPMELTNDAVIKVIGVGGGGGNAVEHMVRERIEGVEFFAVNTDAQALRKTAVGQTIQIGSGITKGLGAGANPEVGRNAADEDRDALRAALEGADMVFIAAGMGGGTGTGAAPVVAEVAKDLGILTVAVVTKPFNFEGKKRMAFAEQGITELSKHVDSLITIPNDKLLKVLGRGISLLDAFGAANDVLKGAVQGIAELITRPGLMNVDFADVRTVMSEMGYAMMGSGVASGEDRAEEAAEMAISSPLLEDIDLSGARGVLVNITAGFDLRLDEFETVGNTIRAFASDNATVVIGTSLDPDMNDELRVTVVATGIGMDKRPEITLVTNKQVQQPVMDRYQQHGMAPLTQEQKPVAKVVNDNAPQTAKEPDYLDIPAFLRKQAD

IC50 [µM] | Structure (SMILES)
> 128 | CSCCNc1nc(/C=C/c2ccc(Cl)cc2)nc2cc3ccccc3cc12
9 | NCCNc1nc(/C=C/c2ccc(Cl)cc2)nc2cc3ccccc3cc12
85 | CN(C)CCNc1nc(/C=C/c2ccc(Cl)cc2)nc2ccc(C(=O)c3ccccc3)cc12
> 128 | CC(C)(C)OC(=O)NCCNc1nc(/C=C/c2ccc(Cl)cc2)nc2cc3ccccc3cc12
14 | CN(C)CCNc1nc(/C=C/c2ccc(N=[N+]=[N-])cc2)nc2cc3ccccc3cc12
30 | CN(C)CCNc1nc(/C=C/c2ccc(Cl)cc2)nc2ccc(Br)cc12
28 | CN(C)CCNc1nc(/C=C/c2ccc(Cl)cc2)nc2ccc(-c3ccccc3)cc12
> 128 | CN(C)CCNc1nc(/C=C/c2ccc(Cl)cc2)nc2ccccc12
24 | CN(C)CCNc1nc(/C=C/c2ccc(I)cc2)nc2cc3ccccc3cc12
24 | Cc1ccc2nc(/C=C/c3ccc(Cl)cc3)nc(NCCN(C)C)c2c1
52 | C[N+](C)(C)CCNc1nc(/C=C/c2ccc(Cl)cc2)nc2cc3ccccc3cc12
> 128 | CN(C)CCNc1nc(/C=C/c2ccc(Cl)cc2)nc2cc(C(F)(F)F)ccc12
> 128 | CN(C)CCNc1nc(/C=C/c2ccc(Cl)cc2)nc2ccc(-c3cccs3)cc12
27 | Cc1ccc2nc(/C=C/c3ccc(Cl)cc3)nc(NCCN)c2c1
> 128 | COCCNc1nc(/C=C/c2ccc(Cl)cc2)nc2cc3ccccc3cc12
95 | CN(C)CCNc1nc(/C=C/c2ccc(Cl)cc2)nc2ccc(I)cc12
> 128 | COCCCNc1nc(/C=C/c2ccc(Cl)cc2)nc2cc3ccccc3cc12
> 128 | CC(=O)NCCNc1nc(/C=C/c2ccc(Cl)cc2)nc2cc3ccccc3cc12
65 | CN(C)CCCNc1nc(/C=C/c2ccc(Cl)cc2)nc2cc3ccccc3cc12
> 128 | COCCNc1nc(/C=C/c2ccc(Cl)cc2)nc2ccc(C)cc12
58 | CN(C)CCNc1nc(/C=C/c2ccc(Cl)cc2)nc2ccc(-c3ccc4ccccc4c3)cc12
> 128 | CC(C)(C)OC(=O)CNc1nc(/C=C/c2ccc(Cl)cc2)nc2cc3ccccc3cc12
26 | CN(C)CCOc1nc(/C=C/c2ccc(Cl)cc2)nc2cc3ccccc3cc12
30 | CN(C)CCNc1nc(/C=C/c2ccc(Cl)cc2)nc2ccc(-c3ccncc3)cc12

Continued, compound first:

Structure (SMILES) | IC50 [µM]
Cc1ccc2nc(C(=O)Nc3ccc(Cl)cc3)nc(NCCN)c2c1 | > 128
Cc1ccc2nc(/C=C/c3ccc(Cl)cc3)nc(NCCNC(=O)OC(C)(C)C)c2c1 | > 128
CN(C)CCNc1nc(/C=C/c2ccc(Cl)cc2)nc2ccc(C3=CCCCC3)cc12 | 49
Cc1cccc2nc(/C=C/c3ccc(Cl)cc3)nc(NCCN(C)C)c12 | > 128
COc1cc2nc(/C=C/c3ccc(Cl)cc3)nc(NCCN(C)C)c2cc1OC | 100
Cc1ccc2nc(C(=O)NCc3ccc(Cl)cc3)nc(NCCN(C)C)c2c1 | > 128

target: T2, Cell division protein FtsZ (Bacillus subtilis (strain 168), UniProt P17865); assay: Inhibition of Bacillus subtilis FtsZ GTPase activity after 5 mins by enzyme-coupled inhibition assay
T2 sequence (P17865 whole entry): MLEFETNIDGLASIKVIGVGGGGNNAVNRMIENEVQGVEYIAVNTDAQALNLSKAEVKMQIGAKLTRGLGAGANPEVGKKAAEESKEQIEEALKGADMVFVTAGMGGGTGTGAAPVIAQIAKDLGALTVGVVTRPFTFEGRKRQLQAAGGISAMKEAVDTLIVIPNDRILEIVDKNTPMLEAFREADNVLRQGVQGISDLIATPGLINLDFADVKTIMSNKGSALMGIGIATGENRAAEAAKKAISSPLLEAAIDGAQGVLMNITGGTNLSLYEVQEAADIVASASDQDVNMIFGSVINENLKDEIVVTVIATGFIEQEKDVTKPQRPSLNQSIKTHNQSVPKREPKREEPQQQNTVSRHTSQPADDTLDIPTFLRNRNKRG

IC50 [µM] | Structure (SMILES)
> 128 | COc1ccc(-c2nc(NCCN(C)C)c3cc(C)ccc3n2)cc1
> 128 | Cc1ccc2nc(-c3ccc4ccccc4c3)nc(NCCN(C)C)c2c1
> 128 | Cc1ccc2nc(/C=C/c3ccc(Br)cc3)nc(NCCN(C)C)c2c1
> 128 | Cc1ccc2nc(/C=C/c3ccc(I)cc3)nc(NCCN(C)C)c2c1
> 128 | Cc1ccc2nc(-c3cc4ccccc4o3)nc(NCCN(C)C)c2c1
> 128 | Cc1ccc2nc(NCc3ccccc3)nc(NCCN(C)C)c2c1
> 128 | Cc1ccc2nc(N)nc(NCCN(C)C)c2c1
> 128 | Cc1ccc2nc(-c3cccs3)nc(NCCN(C)C)c2c1
> 128 | Cc1ccc2nc(NCc3ccc(Cl)cc3)nc(NCCN(C)C)c2c1
> 128 | Cc1ccc2nc(/C=C/c3ccc(C(F)(F)F)cc3)nc(NCCN(C)C)c2c1
> 128 | Cc1ccc2nc(-c3ccc(Cl)cc3)nc(NCCN(C)C)c2c1
> 128 | Cc1ccc2nc(/C=C/c3ccc(C(C)(C)C)cc3)nc(NCCN(C)C)c2c1

target: T3, Cell division protein FtsZ (Staphylococcus aureus, UniProt P0A031); assay: Activation of Staphylococcus aureus FtsZ GTPase activity
T3 sequence (P0A031 whole entry): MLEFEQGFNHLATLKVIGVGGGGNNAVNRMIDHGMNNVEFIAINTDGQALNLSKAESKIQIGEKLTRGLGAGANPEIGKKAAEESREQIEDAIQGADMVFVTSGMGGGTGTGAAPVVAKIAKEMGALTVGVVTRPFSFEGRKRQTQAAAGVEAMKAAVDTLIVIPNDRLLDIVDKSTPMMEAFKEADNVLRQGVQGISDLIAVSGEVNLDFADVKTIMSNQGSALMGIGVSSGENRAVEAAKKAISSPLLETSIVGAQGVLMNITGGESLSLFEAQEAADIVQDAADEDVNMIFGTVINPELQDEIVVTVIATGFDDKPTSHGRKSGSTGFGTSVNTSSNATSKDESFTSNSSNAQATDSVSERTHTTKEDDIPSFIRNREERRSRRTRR

EC50 [µM] | Structure (SMILES)
4 | NC(=O)c1c(F)ccc(OCc2nc3cc(Cl)cnc3s2)c1F

target: not listed separately; assay: Inhibition of bacterial FtsZ GTPase activity (unknown origin)

IC50 [µM] | Structure (SMILES)
24 | CCN(CC)CCNc1nc(/C=C/c2ccc(Cl)cc2)nc2cc3ccccc3cc12
12 | CN(C)CCNc1nc(/C=C/c2ccc(Cl)cc2)nc2cc3ccccc3cc12

target: T4, Cell division protein FtsZ (Escherichia coli K-12) (UniProt P0A9A6); assay: Competitive inhibition of Escherichia coli FtsZ GTPase activity after 5 mins by enzyme-coupled inhibition assay in presence of 10 to 1250 uM GTP
T4 sequence (whole entry): T1 sequence (P0A9A6 whole entry)

inhibition | Structure (SMILES)
inactive | CCN(CC)CCNc1nc(/C=C/c2ccc(Cl)cc2)nc2cc3ccccc3cc12
